US20120172650A1, “USE OF SO[…] AN ANALOGUE THEREOF IN COMBINATION WITH EXTERNAL RADIATION THERAPY” (priority 2009, published 2012)
Where two headings read alike, the source gives them in different places.

How the values were obtained:
[1] = tested on: GH3 cells; format: cell-based, rat; details: for surviving fraction at 10 Gy: 100 nM lanreotide, plus 10 Gy radiation (radiation alone 0.0006); for cell survival rate (colony forming units): 21 days
Excerpt: Currently, there are no human pituitary GH-secreting cell lines that can be maintained in a differentiated state in vitro for sufficient time for colony formation assessment (Danila, D. C. et al., J. Clin. Endocrinol. Metab., 2001, 86:2976-8; Danila, D. C. et al., J. Clin. Endocrinol. Metab., 2000, 85:1180-7). As such, a rat GH3 pituitary tumor cell line was purchased from ATCC. The GH3 cells were maintained in DMED/F-12 medium (Gibco BRL, Grand Island, N.Y.) supplemented with 10% fetal calf serum, 100 units/ml penicillin and 100 μg/ml streptomycin in a 37° C. humidified incubator with a mixture of 95% air and 5% CO2. All experiments were performed on exponentially growing cells with a doubling time of approximately 30 hours.
GH3 cells were detached from the cell culture support using a 0.05% trypsin-EDTA solution. The collected cells were counted, diluted in fresh growth medium and plated in triplicate in 60 mm Petri dishes (BD Biosciences, San Jose, Calif.) at dilutions of approximately 100-100,000 cells/dish. Lanreotide (Biomeasure, Inc., Milford, Mass., USA) was added to the diluted cells at final concentrations of 1-1000 nM. The cells were irradiated with 0-10 Gy at room temperature using a ^137Cs source with a dose rate of 300 cGy/min. Following exposure to lanreotide or gamma irradiation, the media was drained from the dish, the cells were washed twice with PBS (phosphate buffered saline) solution and the plates were filled with fresh growth medium. After incubation at 37° C. for 21 days, the cells were stained with 0.25% crystal violet. Colonies containing ≧50 cells were counted under a dissecting microscope and survival curves were generated. The plating efficiency (PE) was calculated as the percentage of cells plated that grew into colonies. The surviving fraction (SF) was defined as the fraction of cells surviving, i.e. number of colonies/(number of […]×PE).
GH3 cells were plated in 60 mm tissue culture dishes and incubated overnight prior to treatment with the somatostatin agonist analog. Lanreotide was added to the cells to a final concentration of 1-1000 nM. After a 21 day incubation period in the presence of lanreotide the cells were stained and colonies with >50 cells were counted.
GH3 cells were plated in tissue culture dishes and allowed to incubate overnight prior to treatment. At 48, 24 or 0 hours before radiation exposure, lanreotide was added to the cells at a final concentration of 100 nM or 1000 nM. At 48, 24 or 0 hours after the addition of the lanreotide, the GH3 cells were irradiated with 0-10 Gy at room temperature with a Cs-137 gamma irradiator. Following irradiation, cells with 24-hour or 0-hour pre-exposure to lanreotide were incubated in lanreotide-containing media for an additional 24 or 48 hours, respectively. After a total of 48-hour exposure, lanreotide-containing media was removed from the plates, the cells washed twice with PBS solution and fresh growth media added to the cells. Cells that were irradiated without exposure to lanreotide were also washed twice with PBS and supplied with fresh media. The cells were incubated for 21 days for colony formation.

[2] = tested on: GH3 cells; test: Apoptosis and cell cycle analysis by FACScan flow cytometry (propidium iodide); format: cell-based, rat; details: for apoptotic sub-G1 cells: 48 hours after 10 Gy radiation
Procedure: Apoptosis and cell cycle distribution was analyzed using a FACScan flow cytometer (BD Biosciences, San Jose, Calif.). The level of apoptosis was quantified by measuring the number of sub-diploid (sub-G1) cells. Briefly, GH3 cells were plated in 60 mm dishes at a density of approximately 500,000 cells/dish and treated with lanreotide and gamma irradiation. Approximately 48 to 168 hours after exposure, the cells were collected and washed with cold PBS supplemented with 5 mM EDTA. Cells were re-suspended in cold PBS-EDTA solution and fixed with cold 100% ethanol. After incubation for 30 minutes at room temperature, the cells were centrifuged and the pellet of cells was treated with 100 μg/ml of RNase A in a PBS-EDTA solution for 30 minutes at room temperature. Propidium iodide (PI) was added to a final concentration of 50 μg/ml and the DNA content was analyzed with a FACScan flow cytometer (BD Biosciences, San Jose, Calif.). The percentage of cells in the apoptotic sub-G1, G1, S, and G2/M phases was calculated.
GH3 cells were placed in 60 mm Petri dishes at a concentration of approximately 500,000 cells/dish and allowed to grow overnight. Lanreotide at 100 nM was added at 48 hours, 24 hours or immediately (0 hours) before irradiation. Cells were irradiated with 10 Gy gamma radiation at room temperature and collected 48, 72, 96 and 168 hours after exposure.
The DNA content of the cells was analyzed using a FACScan and the percentages of cells in the apoptotic sub-G1, G1, S and G2/M phases were calculated. […] The percentage of cells in sub-G1, G1, S and G2/M phases at 48 hours was 1.4±0.2%, 73.2±1.0%, 8.4±1.0% and 16.9±1.8%, respectively.

[3] = tested on: GH3 xenograft tumors; test: Mouse GH3 xenograft tumor model, tumor growth delay; format: in vivo, nude mice
Procedure: Male nude mice, 8 weeks old and 20-25 grams in body weight, were used in this study (Charles River Laboratories, Hollister, Calif.). Prior to experimentation the mice were tested and found to be negative for specific pathogens. The mice were maintained under specific-pathogen-free conditions and allowed to breed. Sterilized food and water were available ad libitum.
Tumors were initiated in the in the right flank of the mice by a subcutaneous injection of 5×10^6 tumor cells suspended in 100 μl of a 1:1 mixture of Hank's solution and Matrigel (BD Biosciences, San Jose, Calif.). Each mouse received one inoculation injection. When the tumors reached an average size of 120 mm^3 (80-200 mm^3), the mice were randomly assigned to different treatment groups with 5-8 mice in each group. Lanreotide was administered to each mouse via subcutaneous injection. […]
Local irradiation of individual tumors was carried out as follows. Unanesthetized tumor-bearing mice were placed in lead boxes, positioned so as to have the tumors protruding through a cut-out window at the rear of each box. The radiation dose was delivered using a Philips RT-250 200 kVp X-ray unit (12.5 mA; Half Value Layer, 1.0-mm Cu) at a dose rate of 138 cGy/min. The tumors were exposed to 150-250 cGy per fraction daily for 5 consecutive days as specified in each experiment.
(§1) Tumor volume was calculated using the formula: tumor volume (mm^3)=π/6×length×width^2. The length and width of the tumors were measured with calipers before treatment and three times a week thereafter, until the tumor volume reached at least 4 times (4×) the pre-treatment volume. The tumor volume quadrupling (4×) time was determined by a best-fit regression analysis. The tumor growth delay (TGD) time (in days) is the difference between the tumor volume quadrupling time of treated tumors compared to the tumor volume quadrupling time of untreated control tumors. Both the tumor volume quadrupling time and tumor growth delay time were calculated for each individual animal and then averaged for each group. In some experiments, a complete response of tumors was recorded if a tumor shrunk to the point that it was not palpable at the end of the experiment. Body weight was measured twice a week.

[4] = Tolerability in GH3 tumor-bearing mice (body weight, appearance, activity); format: in vivo, nude mice
Procedure: as §1

CC(C)[C@@H]1NC(=O)[C@H](CCCCN)NC(=O)[C@@H](Cc2c[nH]c3ccccc23)NC(=O)[C@H](Cc2ccc(O)cc2)NC(=O)[C@@H](NC(=O)[C@H](N)Cc2ccc3ccccc3c2)CSSC[C@@H](C(=O)N[C@H](C(N)=O)[C@@H](C)O)NC1=O [lanreotide, D-2-Nal-Cys-Tyr-D-Trp-Lys-Val-Cys-Thr-NH2]
surviving fraction at 10 Gy ([1]; 0 hour pre-exposure): 0.00042 | surviving fraction at 10 Gy ([1]; 24 hours pre-exposure): 0.0004 | surviving fraction at 10 Gy ([1]; 48 hours pre-exposure): 0.00022 | effect on radiation survival curves ([1]; 1000 nM lanreotide for 48 hours with 0-10 Gy radiation): did not alter the shape and slopes of the radiation survival curves | IC50 ([1]; GH3 cells, 21 day incubation in the presence of lanreotide, read-out: IC50 (50% inhibition of cell growth), colony formation): 57 nM | cell survival rate (colony forming units) ([1]; lanreotide 1 nM): 75% | cell survival rate (colony forming units) ([1]; lanreotide 10 nM): 56% | cell survival rate (colony forming units) ([1]; lanreotide 100 nM): 39% | cell survival rate (colony forming units) ([1]; lanreotide 1000 nM): 27% | reduction of clonogenic survival compared with untreated controls ([1]; lanreotide alone 100 nM or 1000 nM for 48 hours, without radiation): 5-10% | percentage of cells in sub-G1 phase ([2]; 100 nM lanreotide alone (control 1.4±0.2% at 48 hours)): 2.28±0.3% | percentage of cells in S phase ([2]; 100 nM lanreotide alone (control 8.4±1.0%)): 7.72±0.8% | percentage of cells in G2/M phase ([2]; 100 nM lanreotide alone (control 16.9±1.8%)): 16.2±0.5% | percentage of cells in G1 phase ([2]; 100 nM lanreotide alone (control 73.2±1.0%)): 73.8±1.1% | apoptotic sub-G1 cells ([2]; 100 nM lanreotide 0 hours pre-exposure (radiation alone 4.9%)): 13.4% | apoptotic sub-G1 cells ([2]; 100 nM lanreotide 24 hours pre-exposure (radiation alone 4.9%)): 9.3% | apoptotic sub-G1 cells ([2]; 100 nM lanreotide 48 hours pre-exposure (radiation alone 4.9%)): 8.6% | sub-G1 cell fraction ([2]; 168 hours after 10 Gy radiation, radiation plus 100 nM lanreotide (radiation alone 12%)): 20-22% | tumor growth delay time, pre-administration plus radiation ([3]; 10 mg/kg lanreotide 5 days, then lanreotide plus 150 cGy daily for 5 days (radiation alone 15.5±8.8 days)): 15.1 ± 8.6 days | once daily vs twice daily dosing in reducing tumor growth ([3]; 2.5, 5 or 10 mg/kg s.c. qd or bid for 5 days, p=0.3-0.9): lanreotide delivered once a day was as effective as lanreotide delivered twice daily | tumor growth 4× delay ([3]; dose response study, 10 mg/kg s.c. daily for 5 days (optimal dose, bell-shaped curve)): 13.1 ± 4.7 days | complete tumor regression ([3]; irradiation and combination therapy groups, study terminated after 60 days): Two mice from the irradiation and combination therapy groups exhibited complete tumor regression | 4×TGD ([3]; lanreotide alone 10 mg/kg daily for 10 days, p=0.06 vs. control): 8.3 ± 8.3 days | tumor growth 4× delay ([3]; regimen comparison, 5 mg/kg twice daily for 5 days): 1.1 ± 3.1 days | tumor growth 4× delay ([3]; regimen comparison, 10 mg/kg once daily for 5 days): 4.9 ± 2.1 days | signs of systemic toxicity (general appearance, skin reaction, body weight, activity) ([4]; 10 mg/kg for 10 days alone and in combination with 150 cGy external radiation): did not result in any obvious signs of systemic toxicity | animal body weight, combination vs fractionated radiation alone ([4]; 10 mg/kg lanreotide plus 150-250 cGy/fraction for 5 days): did not cause any further decrease in animal body weight | general appearance and daily activity ([4]; 2.5-50 mg/kg daily for 5 days): no notable change | body weight compared to untreated control mice ([4]; 2.5-50 mg/kg daily for 5 days, all doses tested): did not cause significant decrease in body weight
